≈ marks a conversion by molar mass, not a printed value. Where two headings read alike, the source gives them in different places.
Columns and labels:
[1] = parameters: method as in PMID 23884130; conditions: 3-hydroxynaphthalene-2-carboxanilide series; cited from earlier work
[2] = test system: Mycobacterium avium subsp. paratuberculosis (CIT03); assay: In vitro antimycobacterial evaluation (alamarBlue MIC); assay type: cell-based; conditions: 264 h, M. avium paratuberculosis CIT03, 11 days, 37 °C
Description: A well characterised clinical isolate of Mycobacterium avium subsp. paratuberculosis (CIT03) was grown in Middlebrook broth (MB), supplemented with Oleic-Albumin-Dextrose-Catalase supplement (OADC, Becton, Dickinson & Comp., Franklin Lakes, NJ, USA) and mycobactin J (2 µg/mL). Identification of this isolate was performed using biochemical and molecular protocols. At log phase growth, a culture sample (10 mL) was centrifuged at 15,000 rpm/20 min using a bench top centrifuge (Model CR 4-12, Jouan Inc., Winchester, VA, USA). Following removal of the supernatant, the pellet was washed in fresh Middlebrook 7H9GC broth and re-suspended in fresh supplemented MB (10 mL). The turbidity was adjusted to match McFarland standard No. 1 (3 × 10^8 cfu) with MB broth. A further 1:20 dilution of the culture was then performed in MB broth. The antimicrobial susceptibility of the mycobacterial species was investigated in a 96-well plate format. In these experiments, sterile deionised water (300 µL) was added to all outer-perimeter wells of the plates to minimize evaporation of the medium in the test wells during incubation. Each evaluated compound (100 µL) was incubated with each of the mycobacterial species (100 µL). Dilutions of each compound were prepared in duplicate. For all synthesized compounds, final concentrations ranged from 1,000 µg/mL to 8 µg/mL. All compounds were prepared in DMSO and subsequent dilutions were made in supplemented MB. The plates were sealed with parafilm and incubated at 37 °C, for 11 days in the case of M. avium paratuberculosis. Following incubation, a 10% addition of alamarBlue (AbD Serotec, Kidlington, UK) was mixed into each well and readings at 570 nm and 600 nm were taken, initially for background subtraction and subsequently after 24 h re-incubation. The background subtraction is necessary for strongly coloured compounds, where the colour may interfere with the interpretation of any colour change. For non-interfering compounds, a blue colour in the well was interpreted as an absence of growth and a pink colour was scored as growth. The minimum inhibitory concentrations (MICs) were initially defined as the lowest concentration which prevented a visual colour change from blue to pink.
The MICs were defined as the lowest concentration of the compound at which no visible bacterial growth was observed. The MIC value is routinely and widely used in bacterial assays and is a standard detection limit according to the Clinical and Laboratory Standards Institute (CLSI). Isoniazid (Sigma-Aldrich) was used as reference antimycobacterial drug.

M. smegmatis ATCC 700084 = assay: In vitro antimycobacterial evaluation (broth dilution MIC); assay type: cell-based, Mycobacterium smegmatis; conditions: Mycolicibacterium smegmatis, ATCC700084, 72 h; M. smegmatis ATCC 700084, 3 days, 37 °C
[3] = test system: photosynthetic electron transport (PET) in spinach chloroplasts; assay: Inhibition of photosynthetic electron transport (PET) in spinach chloroplasts; assay type: biochemical, Spinacia oleracea L.; conditions: DCPIP photoreduction
Description: Chloroplasts were prepared from spinach (Spinacia oleracea L.) according to Masarovicova and Kralova. The inhibition of photosynthetic electron transport (PET) in spinach chloroplasts was determined spectrophotometrically (Genesys 6, Thermo Electron Scientific Instruments, Madison, WI, USA), using an artificial electron acceptor 2,6-dichlorophenol-indophenol (DCPIP) according to Kralova et al., and the rate of photosynthetic electron transport was monitored as a photoreduction of DCPIP. The measurements were carried out in phosphate buffer (0.02 mol/L, pH 7.2) containing sucrose (0.4 mol/L), MgCl2 (0.005 mol/L) and NaCl (0.015 mol/L). The chlorophyll content was 30 mg/L in these experiments and the samples were irradiated (~100 W/m^2 with 10 cm distance) with a halogen lamp (250 W) using a 4 cm water filter to prevent warming of the samples (suspension temperature 22 °C). The studied compounds were dissolved in DMSO due to their limited water solubility. […] The inhibitory efficiency of the studied compounds was expressed by IC50 values, i.e., by molar concentration of the compounds causing 50% decrease in the oxygen evolution rate relative to the untreated control.

[4] = test system: methicillin-resistant Staphylococcus aureus SA 3202; assay: In vitro antibacterial susceptibility testing (broth dilution MIC); assay type: cell-based; conditions: MRSA, clinical isolate SA 3202, 24 h, 37 °C, read-out: MIC MRSA 3202
Description: (§1) The synthesized compounds were evaluated for in vitro antibacterial activity against representatives of multidrug-resistant bacteria, clinical isolates of methicillin-resistant Staphylococcus aureus (MRSA) 63718, SA 630 and SA 3202 that were obtained from the National Institute of Public Health, Prague, Czech Republic. Staphylococcus aureus ATCC 29213 was used as a reference and quality control strain. Ampicillin (Sigma-Aldrich) was used as the standard. Prior to testing, each strain was passaged onto nutrient agar (Oxoid, Hampshire, UK) with 5% of bovine blood, and bacterial inocula were prepared by suspending a small portion of bacterial colony in sterile phosphate buffered saline (pH 7.2–7.3). The cell density was adjusted to 0.5 McFarland units using a densitometer (Densi-La-Meter, LIAP, Riga, Latvia). The final inoculum was made by 1:20 dilution of the suspension with the Mueller-Hinton broth (MH broth). […] The final concentrations of the evaluated compounds ranging from 256 μg/mL to 0.008 μg/mL. The broth dilution micro-method modified according to NCCLS guidelines in MH broth was used to determine the minimum inhibitory concentration (MIC). Drug-free controls, sterility controls and controls consisted of MH broth and DMSO alone were included. The determination of results was performed visually after 24 h of static incubation in the darkness at 37 °C in an aerobic atmosphere. The MICs were defined as the lowest concentration of the compound at which no visible bacterial growth was observed.

[5] = test system: Staphylococcus aureus ATCC 29213; assay: as above; assay type: cell-based; conditions: ATCC29213; Staphylococcus aureus ATCC 29213, 24 h, 37 °C
Description: as §1

[6] = test system: methicillin-resistant Staphylococcus aureus (MRSA) 63718; assay: as above; assay type: cell-based; conditions: clinical isolate MRSA 63718, 24 h, 37 °C
Description: as §1

[7] = test system: methicillin-resistant Staphylococcus aureus SA 630; assay: as above; assay type: cell-based; conditions: MRSA, clinical isolate SA 630, 24 h, 37 °C
Description: as §1

M. kansasii DSM 44162 = assay: In vitro antimycobacterial evaluation (broth dilution MIC); assay type: cell-based; conditions: Mycobacterium kansasii, DSM44162, 168 h; M. kansasii DSM 44162, 7 days, 37 °C
[8] = Lipophilicity determination by RP-HPLC (capacity factor log k); assay type: physicochemical; conditions: isocratic, MeOH 60%/H2O 40%, C18
Description: A HPLC system Agilent 1200 equipped with DAD detector (Agilent, Santa Clara, CA, USA) was used. A chromatographic column Symmetry® C18 5 μm, 4.6 × 250 mm, Part No. WAT054275, (Waters Corp., Milford, MA, USA) was used. The HPLC separation process was monitored and evaluated by EZChrom Elite software ver. 3.3.2 (Agilent). Isocratic elution by a mixture of MeOH p.a. (60%) and H2O-HPLC Mili-Q grade (40%) as a mobile phase was used. The total flow of the column was 1.0 mL/min, injection 20 μL, column temperature 40 °C and sample temperature 10 °C. The detection wavelength 210 nm was chosen. The KI methanolic solution was used for the dead time (tD) determination. Retention times (tR) were measured in minutes. The capacity factors k were calculated according to formula k = (tR − tD)/tD, where tR is the retention time of the solute, whereas tD denotes the dead time obtained using an unretained analyte. Log k, calculated from the capacity factor k, is used as the lipophilicity index converted to log P scale.

[9] = test system: Mycobacterium marinum CAMP 5644; assay: In vitro antimycobacterial evaluation (broth dilution MIC); assay type: cell-based; conditions: for MIC: Mycobacterium marinum, CAMP5644, 504 h, M. marinum CAMP 5644, 21 days, 28 °C
[10] = test system: spinach chloroplasts (photosystem II); assay: Chlorophyll a and aromatic amino acids fluorescence in spinach chloroplasts; assay type: biochemical, Spinacia oleracea L.
Description: The fluorescence emission spectra of chlorophyll a (Chla) and aromatic amino acids (AAA) in spinach chloroplasts were recorded on fluorescence spectrophotometer F-2000 (Hitachi, Tokyo, Japan) using excitation wavelength λex = 436 nm for monitoring fluorescence of Chla and λex = 275 nm for monitoring AAA fluorescence, excitation slit 20 nm and emission slit 10 nm. The samples were kept in the dark for 2 min before measuring. The phosphate buffer used for dilution of the chloroplast suspension was the same as described above. Due to low aqueous solubility the compounds were added to chloroplast suspension in DMSO solution. The DMSO concentration in all samples was the same as in the control (10%). The chlorophyll concentration in chloroplast suspension was 10 mg/L.

[11] = test system: human monocytic leukemia THP-1 cells; assay: In vitro cytotoxicity assay (LDH); assay type: cell-based; conditions: treatment with 20 µmol/L, 24 h
Description: Human monocytic leukemia THP-1 cells were obtained from the European Collection of Cell Cultures (ECACC, Salisbury, UK; Methods of characterization: DNA Fingerprinting (Multilocus probes) and isoenzyme analysis). These cells were routinely cultured in RPMI 1640 (Lonza, Verviers, Belgium) medium supplemented with 10% fetal bovine serum (FBS, Sigma-Aldrich), 2% L-glutamine, 1% penicillin and streptomycin (Lonza, Verviers, Belgium) at 37 °C with 5% CO2. Cells were passaged at approximately 1 week intervals. Cells were routinely tested for the absence of mycoplasma (Hoechst 33258 staining method). The tested compounds were dissolved in DMSO (Sigma-Aldrich) and added in five increasing concentrations to the cell suspension in the culture medium. The maximum concentration of DMSO in the assays never exceeded 0.1%. Subsequently, the cells were incubated for 24 h at 37 °C with 5% CO2 to various compound concentrations ranging from 0.37 to 20 μmol/L in RPMI 1640 medium. Cell toxicity was determined using a Cytotoxicity Detection Kit^PLUS Lactate dehydrogenase (LDH) assay kit (Roche Diagnostics, Mannheim, Germany) according to the manufacturer’s instructions, as described previously. […] All data were evaluated using GraphPad Prism 5.00 software (GraphPad Software, San Diego, CA, USA).

SMILES	log k [1]	MIC [2]	MIC (M. smegmatis ATCC 700084)	IC50 [3]	MIC [4]	MIC [5]	MIC [6]	MIC [7]	MIC (M. kansasii DSM 44162)	log k [8]	MIC [9]	aromatic amino acids (AAA) fluorescence at 334 nm ([10]; c = 0.012-0.117 mmol/L, λex 275 nm)	chlorophyll a fluorescence emission band at 686 nm ([10]; c = 0.059-0.468 mmol/L, λex 436 nm)	lethal effect on THP-1 cells [11]	fold higher activity against M. marinum than isoniazid ([9]; ratio of MIC to isoniazid)
O=C(c1cc(O)cc2ccccc12)N(c1ccccc1)c1ccccc1 [3-hydroxy-N-phenylnaphthalene-1-carboxanilide]	0.6310	–	–	–	–	–	–	–	–	–	–	–	–	–	–
O=C(Nc1ccc(Cl)cc1)c1c(O)ccc2ccccc12 [Compound 5c, N-(4-chlorophenyl)-2-hydroxynaphthalene-1-carboxamide]	–	420 µM (≈ 125 µg/mL)	> 860 µM	59.2 µM	107 µM (≈ 31.9 µg/mL)	215 µM (≈ 64 µg/mL)	> 860 µM	> 860 µM	53.7 µM (≈ 16 µg/mL)	0.7908	> 860 µM	–	–	–	–
O=C(Nc1ccccc1)c1c(O)ccc2ccccc12 [Compound 1, 2-Hydroxy-N-phenylnaphthalene-1-carboxamide]	–	950 µM (≈ 250 µg/mL)	486 µM (≈ 128 µg/mL)	28.9 µM	–	–	–	–	15.2 µM (≈ 4 µg/mL)	1.3016	60.7 µM (≈ 16 µg/mL)	strong decline	decreased intensity	did not lead to significant lethal effects	–
O=C(Nc1ccccc1F)c1c(O)ccc2ccccc12 [Compound 4a, N-(2-fluorophenyl)-2-hydroxynaphthalene-1-carboxamide]	–	203 µM (≈ 57.1 µg/mL)	228 µM (≈ 64.1 µg/mL)	243 µM	455 µM (≈ 128 µg/mL)	228 µM (≈ 64.1 µg/mL)	455 µM (≈ 128 µg/mL)	455 µM (≈ 128 µg/mL)	114 µM (≈ 32.1 µg/mL)	0.5664	228 µM (≈ 64.1 µg/mL)	–	–	–	–
O=C(Nc1ccccc1[N+](=O)[O-])c1c(O)ccc2ccccc12 [Compound 8a, 2-Hydroxy-N-(2-nitrophenyl)naphthalene-1-carboxamide]	–	195 µM (≈ 60.1 µg/mL)	–	121 µM	52 µM (≈ 16 µg/mL)	–	–	104 µM (≈ 32.1 µg/mL)	51.9 µM (≈ 16 µg/mL)	0.8501	104 µM (≈ 32.1 µg/mL)	–	–	did not lead to significant lethal effects	–
O=C(Nc1ccc(C(F)(F)F)cc1)c1c(O)ccc2ccccc12 [Compound 7c, 2-Hydroxy-N-(4-trifluoromethylphenyl)naphthalene-1-carboxamide]	–	731 µM (≈ 242 µg/mL)	> 748 µM	29 µM	47 µM (≈ 15.6 µg/mL)	> 748 µM	94 µM (≈ 31.1 µg/mL)	94 µM (≈ 31.1 µg/mL)	23.3 µM (≈ 7.72 µg/mL)	0.9994	> 748 µM	–	–	–	–
O=C(Nc1cccc([N+](=O)[O-])c1)c1c(O)ccc2ccccc12 [Compound 8b, 2-Hydroxy-N-(3-nitrophenyl)naphthalene-1-carboxamide]	–	405 µM (≈ 125 µg/mL)	–	86.4 µM	–	–	–	–	104 µM (≈ 32.1 µg/mL)	0.9187	~52 µM (≈ 16 µg/mL)	–	–	did not lead to significant lethal effects	about 9 fold
O=C(Nc1cccc(F)c1)c1c(O)ccc2ccccc12 [Compound 4b, N-(3-fluorophenyl)-2-hydroxynaphthalene-1-carboxamide]	–	> 889 µM	> 910 µM	213 µM	228 µM (≈ 64.1 µg/mL)	228 µM (≈ 64.1 µg/mL)	> 910 µM	> 910 µM	114 µM (≈ 32.1 µg/mL)	0.5025	> 910 µM	–	–	–	–

From publication PMC6270026, “Antibacterial and Herbicidal Activity of Ring-Substituted 2-Hydroxynaphthalene-1-carboxanilides” (Molecules, 2013)
